Assays:
Assay in all cases: Kinase assay, 1 mM ATP
Format in all cases: biochemical
[1] = molecular target: EPHA1 (Homo sapiens, UniProt P21709)
Method in brief: (§1)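 Off-chip mobility shift format; IC50 from 4-parameter logistic fit.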

[2] = molecular target: CDK4/CycD3 (Homo sapiens, UniProt P11802)
Method in brief: as §1

[3] = molecular target: T1, FLT3 (Homo sapiens, UniProt P36888)
T1 construct: purchased Carna Biosciences
Method in brief: as §1

[4] = molecular target: QIK (Homo sapiens, UniProt Q9H0K1)
Method in brief: as §1

[5] = molecular target: PKCα (Homo sapiens, UniProt P17252)
Method in brief: as §1

[6] = molecular target: T2, EGFR(T790M/L858R) (Homo sapiens, UniProt P00533, L858R/T790M)
T2 construct: purchased Carna Biosciences
Method in brief: as §1

[7] = molecular target: CDK9/CycT1 (Homo sapiens, UniProt P50750)
Method in brief: as §1

[8] = molecular target: T3, EPHA4 (Homo sapiens, UniProt P54764)
T3 construct: purchased Carna Biosciences
Method in brief: as §1

[9] = molecular target: NEK2 (Homo sapiens, UniProt P51955)
Method in brief: as §1

[10] = molecular target: p38β (Homo sapiens, UniProt Q15759)
Method in brief: as §1

[11] = molecular target: HIPK4 (Homo sapiens, UniProt Q8NE63)
Method in brief: as §1

[12] = molecular target: T4, PKD2 (Homo sapiens, UniProt Q9BZL6)
T4 construct: purchased Carna Biosciences
Method in brief: as §1

[13] = molecular target: LYNa (Homo sapiens, UniProt P07948)
Method in brief: as §1

[14] = molecular target: T5, TYRO3 (Homo sapiens, UniProt Q06418)
T5 construct: purchased Carna Biosciences
Method in brief: as §1

[15] = molecular target: EPHA7 (Homo sapiens, UniProt Q15375)
Method in brief: as §1

[16] = molecular target: T6, JAK1 (Homo sapiens, UniProt P23458)
T6 construct: purchased Carna Biosciences
Method in brief: as §1

[17] = molecular target: JNK3 (Homo sapiens, UniProt P53779)
Method in brief: as §1

[18] = molecular target: BLK (Homo sapiens, UniProt P51451)
Method in brief: as §1

[19] = molecular target: T7, ITK (Homo sapiens, UniProt Q08881)
T7 construct: purchased Carna Biosciences
Method in brief: as §1

[20] = molecular target: CLK1 (Homo sapiens, UniProt P49759)
Method in brief: as §1

[21] = molecular target: ABL (Homo sapiens, UniProt P00519)
Method in brief: as §1

[22] = molecular target: T8, RSK4 (Homo sapiens, UniProt Q9UK32)
T8 construct: purchased Carna Biosciences
Method in brief: as §1

[23] = molecular target: PLK1 (Homo sapiens, UniProt P53350)
Method in brief: as §1

[24] = molecular target: T9, RET(M918T) (Homo sapiens, UniProt P07949, M918T)
T9 construct: purchased Carna Biosciences
Method in brief: as §1

[25] = molecular target: p38α (Homo sapiens, UniProt Q16539)
Method in brief: as §1

[26] = molecular target: DAPK1 (Homo sapiens, UniProt P53355)
Method in brief: as §1

[27] = molecular target: p38δ (Homo sapiens, UniProt O15264)
Method in brief: as §1

[28] = molecular target: TYK2 (Homo sapiens, UniProt P29597)
Method in brief: as §1

[29] = molecular target: EPHB2 (Homo sapiens, UniProt P29323)
Method in brief: as §1

[30] = molecular target: p38γ (Homo sapiens, UniProt P53778)
Method in brief: as §1

[31] = molecular target: CLK2 (Homo sapiens, UniProt P49760)
Method in brief: as §1

[32] = molecular target: T10, TIE2 (Homo sapiens, UniProt Q02763)
T10 construct: purchased Carna Biosciences
Method in brief: as §1

[33] = molecular target: EPHA3 (Homo sapiens, UniProt P29320)
Method in brief: as §1

[34] = molecular target: CDK3/CycE1 (Homo sapiens, UniProt Q00526)
Method in brief: as §1

[35] = molecular target: MST1 (Homo sapiens, UniProt Q13043)
Method in brief: as §1

[36] = molecular target: skMLCK (Homo sapiens, UniProt Q9H1R3)
Method in brief: as §1

[37] = molecular target: PDK1 (Homo sapiens, UniProt O15530)
Method in brief: as §1

[38] = molecular target: SRC (Homo sapiens, UniProt P12931)
Method in brief: as §1

[39] = molecular target: CHK1 (Homo sapiens, UniProt O14757)
Method in brief: as §1

[40] = molecular target: T11, PYK2 (Homo sapiens, UniProt Q14289)
T11 construct: purchased Carna Biosciences
Method in brief: as §1

[41] = molecular target: T12, CHK2 (Homo sapiens, UniProt O96017)
T12 construct: purchased Carna Biosciences
Method in brief: as §1

[42] = molecular target: EPHB4 (Homo sapiens, UniProt P54760)
Method in brief: as §1

T9 sequence (P07949 29-1114 M918T): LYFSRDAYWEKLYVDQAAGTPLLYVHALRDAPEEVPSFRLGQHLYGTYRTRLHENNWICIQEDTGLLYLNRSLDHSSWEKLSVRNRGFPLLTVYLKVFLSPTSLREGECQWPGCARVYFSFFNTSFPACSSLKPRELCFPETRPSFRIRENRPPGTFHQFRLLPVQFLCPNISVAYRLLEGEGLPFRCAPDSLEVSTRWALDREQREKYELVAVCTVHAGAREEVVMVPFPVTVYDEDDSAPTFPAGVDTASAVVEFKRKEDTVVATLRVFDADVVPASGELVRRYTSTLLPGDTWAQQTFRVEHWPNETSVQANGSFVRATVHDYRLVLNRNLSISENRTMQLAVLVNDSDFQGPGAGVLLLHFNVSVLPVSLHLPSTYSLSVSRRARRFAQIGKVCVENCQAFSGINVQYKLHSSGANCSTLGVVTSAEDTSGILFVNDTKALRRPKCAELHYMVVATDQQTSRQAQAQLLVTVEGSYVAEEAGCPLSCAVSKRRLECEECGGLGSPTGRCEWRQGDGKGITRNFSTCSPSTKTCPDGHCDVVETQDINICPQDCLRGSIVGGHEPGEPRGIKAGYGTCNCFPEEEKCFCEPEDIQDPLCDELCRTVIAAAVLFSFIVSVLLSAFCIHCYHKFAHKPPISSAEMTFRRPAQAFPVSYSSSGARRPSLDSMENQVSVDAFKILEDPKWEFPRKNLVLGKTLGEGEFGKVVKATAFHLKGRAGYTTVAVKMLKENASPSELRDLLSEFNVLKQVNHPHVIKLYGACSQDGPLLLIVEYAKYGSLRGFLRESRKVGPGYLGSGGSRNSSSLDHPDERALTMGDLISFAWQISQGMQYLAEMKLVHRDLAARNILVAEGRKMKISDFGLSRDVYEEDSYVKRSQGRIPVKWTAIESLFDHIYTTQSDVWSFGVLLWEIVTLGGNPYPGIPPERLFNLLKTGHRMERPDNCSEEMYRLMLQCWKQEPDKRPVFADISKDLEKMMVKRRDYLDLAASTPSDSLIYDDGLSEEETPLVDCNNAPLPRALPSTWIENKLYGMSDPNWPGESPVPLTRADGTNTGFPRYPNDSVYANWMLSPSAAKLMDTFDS
Chain of EPHB4 (P54760 16-987): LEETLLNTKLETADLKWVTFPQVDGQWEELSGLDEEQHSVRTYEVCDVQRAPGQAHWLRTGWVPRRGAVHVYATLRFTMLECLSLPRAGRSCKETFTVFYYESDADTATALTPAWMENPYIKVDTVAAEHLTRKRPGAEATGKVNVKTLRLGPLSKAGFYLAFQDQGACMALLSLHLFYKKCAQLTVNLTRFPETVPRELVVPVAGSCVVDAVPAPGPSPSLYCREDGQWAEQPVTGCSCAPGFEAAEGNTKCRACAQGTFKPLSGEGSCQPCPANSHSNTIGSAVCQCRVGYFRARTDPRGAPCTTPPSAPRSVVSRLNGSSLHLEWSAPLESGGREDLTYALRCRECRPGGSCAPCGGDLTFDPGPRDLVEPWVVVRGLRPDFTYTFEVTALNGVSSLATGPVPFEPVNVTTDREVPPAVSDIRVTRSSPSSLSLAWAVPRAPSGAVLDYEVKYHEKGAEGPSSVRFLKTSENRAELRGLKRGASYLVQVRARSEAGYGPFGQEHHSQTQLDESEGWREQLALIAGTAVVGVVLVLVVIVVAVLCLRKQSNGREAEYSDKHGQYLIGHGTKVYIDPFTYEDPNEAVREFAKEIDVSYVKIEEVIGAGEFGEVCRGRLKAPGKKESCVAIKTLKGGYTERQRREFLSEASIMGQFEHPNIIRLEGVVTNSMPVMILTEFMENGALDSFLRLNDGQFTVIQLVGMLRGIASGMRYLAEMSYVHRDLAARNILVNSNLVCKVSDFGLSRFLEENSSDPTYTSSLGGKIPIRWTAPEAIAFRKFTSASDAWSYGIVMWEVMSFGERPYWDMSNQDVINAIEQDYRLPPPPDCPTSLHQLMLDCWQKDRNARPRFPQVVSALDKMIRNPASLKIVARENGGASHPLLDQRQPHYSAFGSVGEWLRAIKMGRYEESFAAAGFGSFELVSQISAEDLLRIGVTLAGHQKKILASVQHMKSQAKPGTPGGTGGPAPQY
T3 sequence (P54764 20-986): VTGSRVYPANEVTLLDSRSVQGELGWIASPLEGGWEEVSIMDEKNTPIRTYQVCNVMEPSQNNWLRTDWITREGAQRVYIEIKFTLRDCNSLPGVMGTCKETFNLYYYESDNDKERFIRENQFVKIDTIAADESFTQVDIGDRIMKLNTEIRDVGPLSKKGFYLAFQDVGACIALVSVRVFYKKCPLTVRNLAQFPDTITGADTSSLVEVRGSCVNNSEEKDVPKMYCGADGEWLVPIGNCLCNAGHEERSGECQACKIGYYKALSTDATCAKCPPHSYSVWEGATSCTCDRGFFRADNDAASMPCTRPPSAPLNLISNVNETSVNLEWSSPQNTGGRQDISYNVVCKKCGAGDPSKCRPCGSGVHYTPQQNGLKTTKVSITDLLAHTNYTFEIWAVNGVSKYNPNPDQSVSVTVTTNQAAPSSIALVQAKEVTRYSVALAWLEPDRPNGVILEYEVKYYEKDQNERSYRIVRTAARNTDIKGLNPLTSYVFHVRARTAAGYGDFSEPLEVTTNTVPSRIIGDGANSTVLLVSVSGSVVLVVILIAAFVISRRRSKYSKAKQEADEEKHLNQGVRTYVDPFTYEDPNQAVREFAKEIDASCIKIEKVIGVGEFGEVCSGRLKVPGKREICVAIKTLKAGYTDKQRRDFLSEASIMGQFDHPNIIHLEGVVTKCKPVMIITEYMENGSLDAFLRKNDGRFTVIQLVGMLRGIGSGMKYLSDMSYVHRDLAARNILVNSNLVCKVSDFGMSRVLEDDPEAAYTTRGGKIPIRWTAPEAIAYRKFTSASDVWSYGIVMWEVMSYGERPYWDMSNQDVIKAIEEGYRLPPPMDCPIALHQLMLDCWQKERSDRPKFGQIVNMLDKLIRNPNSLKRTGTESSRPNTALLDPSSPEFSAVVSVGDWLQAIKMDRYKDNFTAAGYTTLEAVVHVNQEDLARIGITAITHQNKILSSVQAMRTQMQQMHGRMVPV
Chain of TYK2 (P29597 whole entry): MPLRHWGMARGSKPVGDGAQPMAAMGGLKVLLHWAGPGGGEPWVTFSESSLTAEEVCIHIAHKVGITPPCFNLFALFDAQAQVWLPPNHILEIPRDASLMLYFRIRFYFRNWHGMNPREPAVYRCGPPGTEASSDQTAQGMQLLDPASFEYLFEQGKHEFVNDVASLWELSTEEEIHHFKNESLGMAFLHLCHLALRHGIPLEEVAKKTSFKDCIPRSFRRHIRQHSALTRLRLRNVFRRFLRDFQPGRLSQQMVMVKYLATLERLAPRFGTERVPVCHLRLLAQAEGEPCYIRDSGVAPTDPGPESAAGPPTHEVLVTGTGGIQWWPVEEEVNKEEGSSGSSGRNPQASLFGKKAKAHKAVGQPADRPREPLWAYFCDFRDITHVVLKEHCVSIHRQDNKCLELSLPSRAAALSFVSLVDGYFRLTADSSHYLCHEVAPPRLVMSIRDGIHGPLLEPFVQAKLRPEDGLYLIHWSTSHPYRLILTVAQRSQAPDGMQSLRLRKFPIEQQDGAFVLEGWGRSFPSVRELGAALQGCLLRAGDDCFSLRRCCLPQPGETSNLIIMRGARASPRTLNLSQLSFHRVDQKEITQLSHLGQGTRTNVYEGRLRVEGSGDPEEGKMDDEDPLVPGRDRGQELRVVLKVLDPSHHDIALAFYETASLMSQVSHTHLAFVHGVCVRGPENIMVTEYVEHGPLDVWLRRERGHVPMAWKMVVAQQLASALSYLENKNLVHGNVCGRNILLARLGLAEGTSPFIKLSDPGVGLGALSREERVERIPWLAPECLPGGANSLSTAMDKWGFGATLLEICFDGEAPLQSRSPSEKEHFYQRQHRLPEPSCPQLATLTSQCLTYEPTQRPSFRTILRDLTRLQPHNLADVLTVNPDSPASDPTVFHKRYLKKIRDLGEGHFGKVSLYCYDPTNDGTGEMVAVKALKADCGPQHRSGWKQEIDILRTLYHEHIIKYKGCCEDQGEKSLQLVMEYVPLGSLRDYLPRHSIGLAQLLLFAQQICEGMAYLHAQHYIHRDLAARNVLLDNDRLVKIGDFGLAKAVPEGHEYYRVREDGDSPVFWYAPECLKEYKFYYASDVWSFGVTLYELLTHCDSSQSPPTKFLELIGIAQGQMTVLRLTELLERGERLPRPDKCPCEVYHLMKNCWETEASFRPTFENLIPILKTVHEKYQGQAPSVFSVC
T5 sequence (Q06418 41-890): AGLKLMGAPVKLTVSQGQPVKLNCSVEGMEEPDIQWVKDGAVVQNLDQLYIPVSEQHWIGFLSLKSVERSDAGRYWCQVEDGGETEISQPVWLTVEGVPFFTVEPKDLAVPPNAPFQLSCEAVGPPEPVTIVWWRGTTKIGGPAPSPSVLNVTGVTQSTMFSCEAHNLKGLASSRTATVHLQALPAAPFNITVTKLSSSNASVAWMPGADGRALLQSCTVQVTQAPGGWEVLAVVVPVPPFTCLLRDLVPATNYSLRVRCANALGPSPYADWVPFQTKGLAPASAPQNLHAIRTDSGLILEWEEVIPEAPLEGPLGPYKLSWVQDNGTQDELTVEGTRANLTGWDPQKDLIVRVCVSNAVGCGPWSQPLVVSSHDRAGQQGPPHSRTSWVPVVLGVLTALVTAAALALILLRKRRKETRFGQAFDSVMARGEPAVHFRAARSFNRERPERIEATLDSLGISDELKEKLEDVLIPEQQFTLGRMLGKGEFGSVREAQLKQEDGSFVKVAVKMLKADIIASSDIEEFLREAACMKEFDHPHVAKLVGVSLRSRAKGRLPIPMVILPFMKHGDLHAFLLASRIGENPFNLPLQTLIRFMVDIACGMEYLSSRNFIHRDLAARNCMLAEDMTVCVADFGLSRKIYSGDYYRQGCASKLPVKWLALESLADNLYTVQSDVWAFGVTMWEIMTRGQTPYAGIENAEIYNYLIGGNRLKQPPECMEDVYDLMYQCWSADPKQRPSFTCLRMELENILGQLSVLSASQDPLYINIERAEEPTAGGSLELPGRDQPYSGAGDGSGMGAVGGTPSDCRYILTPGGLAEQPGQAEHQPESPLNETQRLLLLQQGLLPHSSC

For `C[C@@H](N)COc1ccc(-c2cnc3ccc(N[C@H](C)c4cccc(F)c4)nn23)cc1.O=C(O)CCCCC(=O)O` [DS-6051b], the inhibition at 0.2 µM [1] was 4.8%, the inhibition at 0.2 µM [2] was -0.7% and the inhibition at 0.2 µM [3] was 18.8%. For the same compound, the inhibition at 0.2 µM [4] was -3.9%, the inhibition at 0.2 µM [5] was 2% and the inhibition at 0.2 µM [6] was 4%. For the same compound, the inhibition at 0.2 µM [7] was -2.9%, the inhibition at 0.2 µM [8] was -3.4% and the inhibition at 0.2 µM [9] was -0.8%. For the same compound, the inhibition at 0.2 µM [10] was 0.7%, the inhibition at 0.2 µM [11] was -1.6% and the inhibition at 0.2 µM [12] was -17.3%. It also gave an inhibition at 0.2 µM [13] of 3.1%, an inhibition at 0.2 µM [14] of -1.2% and an inhibition at 0.2 µM [15] of -4.9%. The inhibition at 0.2 µM [16] was -2%, the inhibition at 0.2 µM [17] was 0.655% and the inhibition at 0.2 µM [18] was 0.178%. For the same compound, the inhibition at 0.2 µM [19] was -2.5%, the inhibition at 0.2 µM [20] was 2% and the inhibition at 0.2 µM [21] was -1.1%. The inhibition at 0.2 µM [22] was -5.4%, the inhibition at 0.2 µM [23] was -9.2% and the inhibition at 0.2 µM [24] was 0.9%. The inhibition at 0.2 µM [25] was -6.7%, the inhibition at 0.2 µM [26] was -0.6% and the inhibition at 0.2 µM [27] was -1.3%. It also gave an inhibition at 0.2 µM [28] of 8.3%, an inhibition at 0.2 µM [29] of -1.7% and an inhibition at 0.2 µM [30] of 0.224%. The inhibition at 0.2 µM [31] was -1.1%, the inhibition at 0.2 µM [32] was -2.2% and the inhibition at 0.2 µM [33] was 2.8%. For the same compound, the inhibition at 0.2 µM [34] was -1.2%, the inhibition at 0.2 µM [35] was 11.5% and the inhibition at 0.2 µM [36] was -7.1%. It also gave an inhibition at 0.2 µM [37] of -4.9%, an inhibition at 0.2 µM [38] of 9% and an inhibition at 0.2 µM [39] of -1.2%. The inhibition at 0.2 µM [40] was 8.9%, the inhibition at 0.2 µM [41] was 0.3% and the inhibition at 0.2 µM [42] was -6.2%.

Source: article PMC6688997 (Nature Communications, 2019)
